Results from patent US6379651B1, “Oral-topical dosage forms for delivering antibacterials/antibiotics to oral cavity to eradicate H. pylori as a concomitant treatment for peptic ulcers and other gastro-intestinal diseases” (priority 1995, dated 2002).

Tests used:
[1] = in vivo; cited from earlier work
H. pylori [2] = conditions: in vivo; cited from earlier work
Campylobacter rectus = experiment: In vitro MIC, Campylobacter rectus; type: cell-based
Helicobacter pylori = experiment: In vitro MIC, Helicobacter pylori; type: cell-based
Treponema denticola = experiment: In vitro MIC, Treponema denticola; type: cell-based
rat mesentery culture = experiment: In vitro rat mesentery culture wound closure model; type: cell-based; conditions: for concentrations of growth factors EGF and FGF: 10 mcg/mL to 1,000 mcg/mL in medium, 2% fetal calf serum; for wound closure: 10 mcg/mL to 1,000 mcg/mL, 24-hour, 48-hour and 72-hour, compared to the placebo
Text: This tissue culture model is useful for gaining insights into growth factor interactions and wound healing.

[3] = Diabetic mouse wound healing model; type: in vivo; conditions: formulations of 10 mcg/ml to 1,000 mcg/ml
Experimental: Further, wound healing potential of the above bismuth compounds is evaluated using a diabetic mouse wound healing model (Matuszewska et al., Pharmaceutical Research 11(1):65-71 (1994), incorporated herein by reference).

[4] = Freeze-injured skin graft model; type: in vivo; conditions: for wound healing rates compared to placebo: Doses of 10 to 1000 mcg/mL; for wound healing in cryoinjured grafts: in vivo
[5] = Experimental: Artificial saliva was used (Table 9).
Artificial saliva is used (Table 9).
The test saliva is prepared by dissolving 0.500 g of the antibiotic or antibacterial agent in a 100 mL of the above artificial saliva. […] The denture materials that are exposed to artificial saliva containing the agent or placebo are evaluated.

H. pylori [6] = conditions: cited from earlier work
[7] = compared with placebo, cimetidine and ranitidine; cited from earlier work
[8] = in vivo; cited from earlier work; remark: listed apart in the source

Compound	secretion in the saliva [1]	eradication rate for H. pylori (H. pylori [2]) [%]	minimum effective concentrations (MICs) (Campylobacter rectus) [µg/mL]	minimum effective concentrations (MICs) (Helicobacter pylori) [µg/mL]	minimum effective concentrations (MICs) (Treponema denticola) [µg/mL]	concentrations of growth factors EGF and FGF (rat mesentery culture)	wound closure (rat mesentery culture)	wound healing compared to placebo [3]	wound healing rates compared to placebo [4]	wound healing in cryoinjured grafts [4]	staining, discoloration or changes in texture of natural tooth and denture materials [5]	minimum inhibitory concentration (MIC) against H. pylori (H. pylori [6]) [µg/mL]	MIC against H. pylori, range (H. pylori [6]; range) [µg/mL]	relapse rates of duodenal ulcers [7]	absorption from the GI [1]	steady-state blood levels unlikely to cause any neurotoxicity [8]
CC[C@H]1OC(=O)[C@H](C)[C@@H](O[C@H]2C[C@@](C)(OC)[C@@H](O)[C@H](C)O2)[C@H](C)[C@@H](O[C@@H]2O[C@H](C)C[C@H](N(C)C)[C@H]2O)[C@](C)(OC)C[C@@H](C)C(=O)[C@H](C)[C@@H](O)[C@]1(C)O [Clarithromycin]	secreted in the saliva															
Cc1ncc([N+](=O)[O-])n1CCO [metronidazole]		5														
L-dihydro ascorbyl-tetrakis (hydrogen sulfate) bismuth complex [Bismuth Ascorbyl Sulfate]			256	8	16	Significantly higher	significantly faster wound closure rate and complete closure	heal faster	significant increase	stimulates wound healing in cryoinjured grafts in a dose-related fashion						
beta-D-fructofuranosyl-oktakis (hydrogen sulfate) bismuth complex [Bismuth Sucrose Sulfate]			>256	16	32											
colloidal bismuth subcitrate [CBS]	produces no salivary concentrations		256	2	32	Significantly higher	significantly faster wound closure rate and complete closure	heal faster	significant increase	stimulates wound healing in cryoinjured grafts in a dose-related fashion	did not cause any staining, discoloration, or changes in texture	8	4 to 32	significantly lower relapse rates	not absorbed significantly	50-100
